According to PubChem BioAssay (NCI):
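A five-concentration, 48-hour dose response in 96-well plates underlies each endpoint, interpolated linearly between surrounding concentrations. TGI is the concentration that stops growth completely.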

Columns and labels:
Test in all cases: inhibition of tumour cell growth, NCI panel, 48 h
[1] = system: IGROV1 ovarian
[2] = system: NCI-H226 lung
[3] = system: EKVX NSCLC
[4] = system: UACC-62 melanoma
[5] = system: HOP-92 NSCLC
[6] = system: MDA-MB-231 breast
[7] = system: CCRF-CEM leukemia
[8] = system: RXF 393 renal
[9] = system: M14 melanoma
[10] = system: NCI-H522 lung
[11] = system: BT-549 breast
[12] = system: HOP-62 NSCLC
[13] = system: OVCAR-4 ovarian
[14] = system: SNB-75 CNS
[15] = system: RPMI-8226 leukemia
[16] = system: SN12C renal
[17] = system: MDA-MB-435
[18] = system: UO-31 renal
[19] = system: HS 578T breast
[20] = system: SK-MEL-28 melanoma
[21] = system: T-47D breast
[22] = system: HT29 colon
[23] = system: COLO 205 colon
[24] = system: SK-MEL-2 melanoma
[25] = system: CAKI-1 renal
[26] = system: SNB-19 CNS
[27] = system: ACHN renal
[28] = system: MOLT-4 leukemia
[29] = system: A498 renal
[30] = system: 786-0 renal
[31] = system: UACC-257 melanoma
[32] = system: A549 NSCLC
[33] = system: NCI-H460 lung
[34] = system: SW-620 colon
[35] = system: DU-145 prostate
[36] = system: SF-295 CNS
[37] = system: OVCAR-5 ovarian
[38] = system: PC-3 prostate
[39] = system: MDA-N
[40] = system: HCT-15 colon
[41] = system: LOX IMVI melanoma
[42] = system: SK-MEL-5 melanoma
[43] = system: HCT-116 colon
[44] = system: MALME-3M melanoma
[45] = system: OVCAR-8 ovarian
[46] = system: MCF7 breast
[47] = system: SF-268 CNS
[48] = system: U251 CNS
[49] = system: SF-539 CNS
[50] = system: HL-60(TB) leukemia
[51] = system: TK-10 renal
[52] = system: SK-OV-3 ovarian
[53] = system: NCI-H23 lung
[54] = system: NCI/ADR-RES ovarian
[55] = system: OVCAR-3 ovarian
[56] = system: SR leukemia
[57] = system: K-562 leukemia
[58] = system: KM12 colon
[59] = system: HCC-2998 colon

Structure (SMILES): CN1CCCN(C)C1c1cc([N+](=O)[O-])ccc1O
- TGI [1]: > 100 µM
- TGI [2]: 82.5 µM
- TGI [3]: > 100 µM
- TGI [4]: 44.3 µM
- TGI [5]: 76.6 µM
- TGI [6]: > 100 µM
- TGI [7]: 48.5 µM
- TGI [8]: > 100 µM
- TGI [9]: 58.5 µM
- TGI [10]: > 100 µM
- TGI [11]: > 100 µM
- TGI [12]: > 100 µM
- TGI [13]: > 100 µM
- TGI [14]: > 100 µM
- TGI [15]: > 100 µM
- TGI [16]: 85.7 µM
- TGI [17]: > 100 µM
- TGI [18]: 64.8 µM
- TGI [19]: 67.8 µM
- TGI [20]: 82.3 µM
- TGI [21]: > 100 µM
- TGI [22]: > 100 µM
- TGI [23]: > 100 µM
- TGI [24]: > 100 µM
- TGI [25]: > 100 µM
- TGI [26]: > 100 µM
- TGI [27]: 64.3 µM
- TGI [28]: 59.8 µM
- TGI [29]: > 100 µM
- TGI [30]: > 100 µM
- TGI [31]: 61.3 µM
- TGI [32]: > 100 µM
- TGI [33]: > 100 µM
- TGI [34]: > 100 µM
- TGI [35]: > 100 µM
- TGI [36]: > 100 µM
- TGI [37]: > 100 µM
- TGI [38]: 72.9 µM
- TGI [39]: > 100 µM
- TGI [40]: > 100 µM
- TGI [41]: > 100 µM
- TGI [42]: 48.4 µM
- TGI [43]: > 100 µM
- TGI [44]: 63.7 µM
- TGI [45]: > 100 µM
- TGI [46]: 63.3 µM
- TGI [47]: > 100 µM
- TGI [48]: > 100 µM
- TGI [49]: 74.9 µM
- TGI [50]: 61.4 µM
- TGI [51]: > 100 µM
- TGI [52]: > 100 µM
- TGI [53]: > 100 µM
- TGI [54]: > 100 µM
- TGI [55]: > 100 µM
- TGI [56]: 59.3 µM
- TGI [57]: > 100 µM
- TGI [58]: > 100 µM

Structure (SMILES): O=C(CN1CCN(Cc2ccccc2)CC1)N1CCCn2c1nc1ccccc1c2=O
- TGI [1]: > 100 µM
- TGI [2]: > 100 µM
- TGI [3]: > 100 µM
- TGI [4]: > 100 µM
- TGI [5]: 52.5 µM
- TGI [6]: > 100 µM
- TGI [7]: > 100 µM
- TGI [9]: > 100 µM
- TGI [10]: > 100 µM
- TGI [11]: > 100 µM
- TGI [12]: > 100 µM
- TGI [13]: > 100 µM
- TGI [14]: > 100 µM
- TGI [15]: > 100 µM
- TGI [59]: > 100 µM
- TGI [16]: > 100 µM
- TGI [17]: > 100 µM
- TGI [18]: > 100 µM
- TGI [19]: > 100 µM
- TGI [21]: > 100 µM
- TGI [22]: > 100 µM
- TGI [23]: > 100 µM
- TGI [24]: > 100 µM
- TGI [25]: > 100 µM
- TGI [26]: > 100 µM
- TGI [27]: > 100 µM
- TGI [28]: > 100 µM
- TGI [29]: > 100 µM
- TGI [30]: > 100 µM
- TGI [31]: > 100 µM
- TGI [32]: > 100 µM
- TGI [33]: > 100 µM
- TGI [34]: > 100 µM
- TGI [35]: > 100 µM
- TGI [36]: > 100 µM
- TGI [37]: > 100 µM
- TGI [38]: > 100 µM
- TGI [39]: > 100 µM
- TGI [40]: > 100 µM
- TGI [41]: > 100 µM
- TGI [42]: > 100 µM
- TGI [43]: > 100 µM
- TGI [44]: > 100 µM
- TGI [45]: > 100 µM
- TGI [46]: > 100 µM
- TGI [47]: > 100 µM
- TGI [48]: > 100 µM
- TGI [49]: > 100 µM
- TGI [50]: > 100 µM
- TGI [51]: > 100 µM
- TGI [52]: > 100 µM
- TGI [53]: > 100 µM
- TGI [54]: > 100 µM
- TGI [55]: > 100 µM
- TGI [56]: > 100 µM
- TGI [57]: > 100 µM
- TGI [58]: > 100 µM
